According to patent US20260159533A1, “INHIBITORS OF COMPLEMENT FACTORS AND USES THEREOF” (Annexon, Inc., priority 2022, published 2026):
Structures can show the parent of a compound that is named as a salt.

What follows are molecules tested against T1, human C1s protein (Homo sapiens, UniProt P09871) (assay: recombinant C1s enzymatic assay (YLGR-Rh110-dPro substrate hydrolysis, fluorescence)). Details: recombinant human C1s 2.5 nM, substrate YLGR-Rh110-dPro 20 μM, 15 min pre-incubation, 60 min RT; read-out: rec. hC11s pIC50 (converted).
T1 construct: purchased R&D Systems or Complement Technologies 2060-SE or A104
T1 sequence (P09871 16-688): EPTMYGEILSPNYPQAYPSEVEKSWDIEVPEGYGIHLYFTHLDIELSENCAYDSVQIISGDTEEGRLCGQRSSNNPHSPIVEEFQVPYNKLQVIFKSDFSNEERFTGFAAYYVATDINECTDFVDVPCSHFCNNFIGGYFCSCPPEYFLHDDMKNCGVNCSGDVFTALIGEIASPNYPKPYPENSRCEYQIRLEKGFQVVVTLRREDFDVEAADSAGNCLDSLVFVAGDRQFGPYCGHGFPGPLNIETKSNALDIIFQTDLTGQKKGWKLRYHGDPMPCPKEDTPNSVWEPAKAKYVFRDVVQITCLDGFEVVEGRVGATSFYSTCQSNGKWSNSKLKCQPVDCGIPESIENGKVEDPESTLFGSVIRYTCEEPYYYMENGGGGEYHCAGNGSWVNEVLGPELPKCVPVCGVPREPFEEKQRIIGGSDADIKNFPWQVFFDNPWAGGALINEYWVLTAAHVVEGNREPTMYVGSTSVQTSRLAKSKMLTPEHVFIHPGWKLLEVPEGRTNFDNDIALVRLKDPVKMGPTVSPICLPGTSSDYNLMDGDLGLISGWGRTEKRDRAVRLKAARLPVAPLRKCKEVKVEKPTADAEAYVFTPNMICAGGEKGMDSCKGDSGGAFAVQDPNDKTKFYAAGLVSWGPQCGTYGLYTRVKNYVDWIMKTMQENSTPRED
Assay type: biochemical
Procedure: Compound testing in the purified or recombinant C1s enzymatic assay C1s is a serine protease; its enzymatic activity is measured in vitro by the hydrolysis of the synthetic substrate YLGR-Rh110-dPro (Kerr F K, O'Brien G, Quinsey N S, Whisstock J C, Boyd S, de la Banda M G, Kaiserman D, Matthews A Y, Bird P I, Pike R N. Elucidation of the substrate specificity of the Cis protease of the classical complement pathway. J. Biol. Chem. (2005) 280, 39510-39514). The enzyme cleaves the substrate with the release of Rh110 which is highly fluorescent. Cis inhibitors prevent the hydrolysis of the substrate thus resulting in a decrease of the signal.
The recombinant C1s enzymatic assay is performed using the human C1s protein (R&D Systems, 2060-SE or Complement Technologies, A104). The assay buffer composition is: 50 mM HEPES pH 7.5 (Sigma, H3375), 150 mM NaCl (Sigma, S7653), 0.2% PEG 8000 (VWR, AA43443-22), 0.01% Pluronic F127 (Sigma, P2243). On the day of the experiment 0.1 mg/mL BSA (Sigma, B4287) is added fresh to the buffer. The test item stock solutions are serially diluted 1:3 or 1:4 or 1:5 with DMSO, 11-point curves, in a 384-well compound plate. Nafamostat concentration curve is always included in the assay plate as a reference control.
The assay plate is prepared by dispensing 0.25 μL from compound plate into a 384-well black assay plate (assay plate, Greiner Fluotrac 200, 781076, VWR 736-0140). The high controls are prepared dispensing in 0.25 μL DMSO in column 23, rows AH or AP and low controls with 0.25 μL of 0.1 μM Nafamostat. Cis solution is prepared as 2× of the 2.5 nM final assay concentration. The YLGR-Rh110-dPro substrate is prepared as 2× of the final assay concentration of 20 μM. 5 μL/well of 2× enzyme solution is dispensed and pre-incubated for 15 min with the compounds. The enzymatic reaction is the started with 5 μL/well of the 2× substrate solution. The plate is incubated for 60 min RT in the dark and fluorescence is measured (ex 485/em 535 nm) using an Envision (PerkinElmer) or an equivalent instrument.

SMILES	IC50
CC1COc2cc(-n3cccn3)c(-c3ccc4c(N)cnnc4c3)cc2B(O)O1 (single isomer, unassigned; enantiomer 1) [Example 72, 7-(1-hydroxy-3-methyl-7-pyrazol-1-yl-3,4-dihydro-2,5,1-benzodioxaborepin-8-yl)cinnolin-4-amine enantiomer 1]	1.7 nM
CC1COc2cc(-n3cccn3)c(-c3ccc4c(N)cnnc4c3)cc2B(O)O1 (single isomer, unassigned; enantiomer 2) [Example 73, 7-(1-hydroxy-3-methyl-7-pyrazol-1-yl-3,4-dihydro-2,5,1-benzodioxaborepin-8-yl)cinnolin-4-amine enantiomer 2]	1.51 nM
CNC(=O)c1cnn(-c2ccc(B(O)O)cc2-c2ccc3c(N)cnnc3c2)c1 [Example 2, [3-(4-aminocinnolin-7-yl)-4-[4-(methylcarbamoyl)-1H-pyrazol-1-yl]phenyl]boronic acid formic acid salt]	3.89 nM
COC(=O)c1cn(-c2ccc(B(O)O)cc2-c2ccc3c(N)cnnc3c2)cn1 [Example 4, [3-(4-aminocinnolin-7-yl)-4-[4-(methoxycarbonyl)-1H-imidazol-1-yl]phenyl]boronic acid]	38.9 nM
CNC(=O)c1ccn(-c2ccc(B(O)O)cc2-c2ccc3c(N)cnnc3c2)n1 [Example 6, [3-(4-aminocinnolin-7-yl)-4-[3-(methylcarbamoyl)-1H-pyrazol-1-yl]phenyl]boronic acid]	29.5 nM
Nc1cnnc2cc(-c3cc(B(O)O)ccc3-c3cc[nH]n3)ccc12 [Example 7, [3-(4-aminocinnolin-7-yl)-4-(1H-pyrazol-3-yl)phenyl]boronic acid]	2.63 nM
Nc1cnnc2cc(-c3cc(B(O)O)ccc3-n3cc(C(F)F)cn3)ccc12 [Example 9, [3-(4-aminocinnolin-7-yl)-4-[4-(difluoromethyl)-1H-pyrazol-1-yl]phenyl]boronic acid]	1.74 nM
CC(=O)Nc1cnn(-c2ccc(B(O)O)cc2-c2ccc3c(N)cnnc3c2)c1 [Example 10, [3-(4-aminocinnolin-7-yl)-4-(4-acetamido-1H-pyrazol-1-yl)phenyl]boronic acid formic acid salt]	1.78 nM
Nc1cnnc2cc(-c3cc(B(O)O)ccc3-n3ncnn3)ccc12 [Example 12, [3-(4-aminocinnolin-7-yl)-4-(2H-1,2,3,4-tetrazol-2-yl)phenyl]boronic acid]	0.589 nM
Nc1cnnc2cc(-c3cc(B(O)O)ccc3-n3ccc(C(F)F)n3)ccc12 [Example 14, [3-(4-aminocinnolin-7-yl)-4-[3-(difluoromethyl)-1H-pyrazol-1-yl]phenyl]boronic acid formic acid salt]	14.8 nM
N#Cc1ccn(-c2ccc(B(O)O)cc2-c2ccc3c(N)cnnc3c2)n1 [Example 17, [3-(4-aminocinnolin-7-yl)-4-(3-cyano-1H-pyrazol-1-yl)phenyl]boronic acid]	6.31 nM
Cc1nc(-c2ccc(B(O)O)cc2-c2ccc3c(N)cnnc3c2)ns1 [Example 18, [3-(4-aminocinnolin-7-yl)-4-(5-methyl-1,2,4-thiadiazol-3-yl)phenyl]boronic acid]	1.62 nM
Nc1cnnc2cc(-c3cc(B(O)O)ccc3-c3cc(C(F)(F)F)[nH]n3)ccc12 [Example 19, [3-(4-aminocinnolin-7-yl)-4-[5-(trifluoromethyl)-1H-pyrazol-3-yl]phenyl]boronic acid]	34.7 nM
Nc1cnnc2cc(-c3cc(B(O)O)ccc3-c3nc[nH]n3)ccc12 [Example 20, [3-(4-aminocinnolin-7-yl)-4-(1H-1,2,4-triazol-3-yl)phenyl]boronic acid]	0.776 nM
CS(=O)(=O)Nc1cnn(-c2ccc(B(O)O)cc2-c2ccc3c(N)cnnc3c2)c1 [Example 21, [3-(4-aminocinnolin-7-yl)-4-(4-methanesulfonamido-1H-pyrazol-1-yl)phenyl]boronic acid]	1.86 nM
N#Cc1ccnn1-c1ccc(B(O)O)cc1-c1ccc2c(N)cnnc2c1 [Example 22, [3-(4-aminocinnolin-7-yl)-4-(5-cyano-1H-pyrazol-1-yl)phenyl]boronic acid]	0.851 nM
Nc1cnnc2cc(-c3cc(B(O)O)ccc3-c3nccs3)ccc12 [Example 24, [3-(4-aminocinnolin-7-yl)-4-(1,3-thiazol-2-yl)phenyl]boronic acid formic acid salt]	2.57 nM

The next lines start with the values.

IC50	SMILES
3.24 nM	Nc1cnnc2cc(-c3cc(B(O)O)ccc3-n3cccn3)ccc12 [Example 1, [3-(4-aminocinnolin-7-yl)-4-(1H-pyrazol-1-yl)phenyl]boronic acid]
66.1 nM	Nc1cnnc2cc(-c3cc(B(O)O)ccc3-n3ccnc3)ccc12 [Example 3, [3-(4-aminocinnolin-7-yl)-4-(1H-imidazol-1-yl)phenyl]boronic acid]
1.32 nM	Nc1cnnc2cc(-c3cc(B(O)O)ccc3-n3cncn3)ccc12 [Example 5, [3-(4-aminocinnolin-7-yl)-4-(1H-1,2,4-triazol-1-yl)phenyl]boronic acid formic acid salt]
14.8 nM	Cc1cc(-n2cccn2)c(-c2ccc3c(N)cnnc3c2)cc1B(O)O [Example 8, [5-(4-aminocinnolin-7-yl)-2-methyl-4-(1H-pyrazol-1-yl)phenyl]boronic acid]
1.45 nM	Nc1cnnc2cc(-c3cc(B(O)O)ccc3-n3cc(F)cn3)ccc12 [Example 11, [3-(4-aminocinnolin-7-yl)-4-(4-fluoro-1H-pyrazol-1-yl)phenyl]boronic acid formic acid salt]
4.47 nM	Nc1cnnc2cc(-c3cc(B(O)O)cnc3-n3cccn3)ccc12 [Example 13, [5-(4-aminocinnolin-7-yl)-6-(1H-pyrazol-1-yl)pyridin-3-yl]boronic acid]
0.933 nM	Nc1cnnc2cc(-c3cc(B(O)O)ccc3-n3nccn3)ccc12 [Example 15, [3-(4-aminocinnolin-7-yl)-4-(2H-1,2,3-triazol-2-yl)phenyl]boronic acid formic acid salt]
3.98 nM	Nc1cnnc2cc(-c3cc(B(O)O)ccc3-n3ccnn3)ccc12 [Example 16, [3-(4-aminocinnolin-7-yl)-4-(1H-1,2,3-triazol-1-yl)phenyl]boronic acid]
1.07 nM	COc1cc(-n2cccn2)c(-c2ccc3c(N)cnnc3c2)cc1B(O)O [Example 23, [5-(4-aminocinnolin-7-yl)-2-methoxy-4-(1H-pyrazol-1-yl)phenyl]boronic acid]
0.912 nM	Nc1cnnc2cc(-c3cc(B(O)O)ccc3-c3ncco3)ccc12 [Example 25, [3-(4-aminocinnolin-7-yl)-4-(1,3-oxazol-2-yl)phenyl]boronic acid formic acid salt]
7.24 nM	Nc1cnnc2cc(-c3cc(B(O)O)ccc3-c3ncccn3)ccc12 [Example 26, [3-(4-aminocinnolin-7-yl)-4-(pyrimidin-2-yl)phenyl]boronic acid formic acid salt]
4.47 nM	Nc1cnnc2cc(-c3cc(B(O)O)c(OC(F)F)cc3-n3cccn3)ccc12 [Example 27, [5-(4-aminocinnolin-7-yl)-2-(difluoromethoxy)-4-(1H-pyrazol-1-yl)phenyl]boronic acid formic acid salt]
2.19 nM	COc1cnn(-c2ccc(B(O)O)cc2-c2ccc3c(N)cnnc3c2)c1 [Example 28, [3-(4-aminocinnolin-7-yl)-4-(4-methoxy-1H-pyrazol-1-yl)phenyl]boronic acid formic acid salt]
